These results are taken from US12447137B2, “Composition for prevention, amelioration, or treatment of cancer” (EWHA UNIVERSITY—INDUSTRY COLLABORATION FOUNDATION, priority 2019, dated 2025).

One assay relates to 4T1 cell line. In words: Clonogenic assay. Format: cell-based, mouse. The following applies: 4T1, 10 μM; FIG. 2B. How it is done:
(§1) The breast cancer cell line of Experimental Method 1 was dispensed into a 6-well plate at a density of 1 to 2×10^3 cells/well. After the cells were sufficiently attached, they were treated with the compound of Production Example 6 at a concentration of 0 to 30 μM and cultured for 10 days to 14 days. Next, the cultured cells were fixed with 4% formaldehyde and stained with 1% crystal violet, and the colonies were counted under a microscope.

In another assay the test system is BT549 cell line. Description: Clonogenic assay. Format: cell-based, human. As to conditions: BT549, 10 μM; FIG. 2B. The method, then:
as §1

The subject of another assay is MDA-MB-231 cell line. In words: Clonogenic assay. Format: cell-based, human. The following applies: MDA-MB-231, 10 μM; FIG. 2B. How it is done: as §1
The subject of assay [1] is p-AMPK (Thr172). Description: AMPK activation by p-AMPK (Thr172) Western blot in BT549 cells. Type of assay: cell-based, human. The following applies: BT549, 10 μM, 24 hours; FIG. 3B. The method, then: [3-1] The breast cancer cell line of Experimental Method 1 above was treated with the compound of Production Example 6 at a concentration of 0 to 30 μM, and then cultured for 24 hours. Thereafter, the cells were harvested and lysed in RIPA buffer, and the protein was electrophoresed by SDS-PAGE, and then the expression level of the protein was analyzed using antibodies specific for AMPK and phospho-AMPK (Thr172). GAPDH or β-actin was used as a loading control for protein quantification.
[3-2] The three breast cancer cell lines (4T1, BT549, and MDA-MB-231) of Experimental Method 1 were treated with each of the compound of Production Example 6 and 13 compounds, including the compounds of Production Examples 1 to 5 and 8 to 15 having a similar structure (YE-01, 02, 03, 04, 05, 08, 09, 10, 11, 12, 13, 14 and 15), at a concentration of 10 μM, and then cultured for 24 hours. […] Thereafter, the cells were harvested and lysed in RIPA buffer, and the protein was electrophoresed by SDS-PAGE, and then the expression level of the protein was analyzed using antibodies specific for AMPK and phospho-AMPK (Thr172). GAPDH or β-actin was used as a loading control for protein quantification.

In assay [2] the test system is p-AMPK (Thr172). Description: AMPK activation by p-AMPK (Thr172) Western blot in pancreatic cancer cell lines. Type of assay: cell-based, human. As to conditions: 10 μM, 12 hours, compared to untreated group. How it is done:
[3-2] The three breast cancer cell lines (4T1, BT549, and MDA-MB-231) of Experimental Method 1 were treated with each of the compound of Production Example 6 and 13 compounds, including the compounds of Production Examples 1 to 5 and 8 to 15 having a similar structure (YE-01, 02, 03, 04, 05, 08, 09, 10, 11, 12, 13, 14 and 15), at a concentration of 10 μM, and then cultured for 24 hours. In addition, each of two types of gastric cancer cell lines, brain cancer cell lines and pancreatic cancer cell lines was treated with the compound of Production Example 6 or the compound of Production Example 8 having a similar structure at a concentration of 10 μM and then cultured for 12 hours. Thereafter, the cells were harvested and lysed in RIPA buffer, and the protein was electrophoresed by SDS-PAGE, and then the expression level of the protein was analyzed using antibodies specific for AMPK and phospho-AMPK (Thr172). GAPDH or β-actin was used as a loading control for protein quantification.

The test system of assay [3] is 4T1-luc xenograft (flank, s.c.). Description: Tumor regression in xenograft animal model. Format: in vivo, mouse. The following applies: 4 mg/kg tail vein (IV) once every 3 days, 6 times; compared to Vehicle; FIG. 8A, 8B. The source says:
After 4-week-old athymic nude mice (female) were purchased, only healthy mice were selected while the mice were adapted to the environment of the animal breeding room for 7 days. For identification of each mouse, the ears were marked using an ear punch. In addition, the breeding box was identified by attaching a mouse identification card describing the test number, test substance name, test item, receipt date, test date, test content, and the person in charge of the test. The environment of the animal breeding room was maintained at a temperature of 22±3° C., a relative humidity of 50±20%, 10 to 15 ventilations/hour, a 12-hour light (8:30 to 20:30)/dark cycle, and an illuminance of 150 to 300 lux. In addition, the animals were fed feed and drinking water during the breeding period, and quarantined during the acclimatization and testing periods. […]
During a period ranging from the day the mouse breast cancer cell line 4T1-luc was injected to the end of the experiment (dissection date), the tumor volume was measured every day. […] In order to confirm the tumor regression effect, the volume of the tumor was measured before administration of the compound of Production Example 6, and at day 28 after the first administration of the compound of Production Example 6, the animals were euthanized, and the primary tumors were excised and their volumes were compared.

Assay [4] has as its system 4T1-luc orthotopic graft (fat pad, s.c.). Description: Survival rate in orthotopic animal model. The following applies: 20 mg/kg intraperitoneal once every 3 days, 6 times; compared to Vehicle; FIG. 8D. Format: in vivo, mouse. The source says: After 4-week-old athymic nude mice (female) were purchased, only healthy mice were selected while the mice were adapted to the environment of the animal breeding room for 7 days. For identification of each mouse, the ears were marked using an ear punch. In addition, the breeding box was identified by attaching a mouse identification card describing the test number, test substance name, test item, receipt date, test date, test content, and the person in charge of the test. The environment of the animal breeding room was maintained at a temperature of 22±3° C., a relative humidity of 50±20%, 10 to 15 ventilations/hour, a 12-hour light (8:30 to 20:30)/dark cycle, and an illuminance of 150 to 300 lux. In addition, the animals were fed feed and drinking water during the breeding period, and quarantined during the acclimatization and testing periods.
The nude mice were anesthetized by inhalation with 2.5% isoflurane, and then injected with the mouse breast cancer cell line 4T1-luc of Experimental Method 1 by a sterile syringe. […]
During a period ranging from the day the mouse breast cancer cell line 4T1-luc was injected to the end of the experiment (the date of death), the volume of the tumor was measured once every 3 days and the survival rate of the animal model was checked every day. […]

On to `COc1ccc(OC)c(/C=C/C(=O)c2ccc(NS(=O)(=O)c3ccc(Cl)cc3)cc2)c1` [Production Example 6, (E)-4-chloro-N-(4-(3-(2,5-dimethoxyphenyl)acryloyl)phenyl)benzenesulfonamide], for which the colony formation result in the assay with 4T1 cell line, with BT549 cell line and in the assay on MDA-MB-231 cell line was “significantly reduced” in each case. In addition, in the assay on p-AMPK (Thr172) [1], the p-AMPK level result is given as “effectively increased”. For the same compound, the “expression of p-AMPK” value in the assay with p-AMPK (Thr172) [2] was “increased”. In assay [3], the “volume of the tumor” value is recorded as “decreased”. For the same compound, the survival rate entry in assay [4] is “significantly improved”.
